Test results taken from patent US9090599B2, “Heteroarylmethyl amides” (Hoffman-La Roche Inc., priority 2010, dated 2015).
Like-named read-outs stand apart in the source and are kept apart here.

Columns and labels:
[1] = molecular target: T1, human CB2 receptor (Homo sapiens, UniProt P34972); assay: CB2 receptor affinity, [3H]-CP-55,940 displacement, HEK cell membranes; type: binding; details: 10 μM compound, radioligand [3H]-CP-55,940
T1 construct: expressed in transfected cells; host or cells: human embryonic kidney (HEK) cells, Semliki Forest Virus system, membrane preparations
Protocol: (§1) The affinity of the compounds of the invention for cannabinoid CB2 receptors was determined using membrane preparations of human embryonic kidney (HEK) cells in which the human CB2 receptor is transiently transfected using a Semliki Forest Virus system in conjunction with [^3H]-CP-55,940 as radioligand. After incubation of freshly prepared cell membrane preparation with the [^3H]-ligand, with or without addition of compounds of the invention, separation of bound and free ligand was performed by filtration over glass fiber filters. Radioactivity on the filter was measured by scintillation counting.
(§2) The ability of the compounds to displace the radioligand [^3H]-CP-55,940 was measured at a concentration of 10 μM and values provided as [% inhibition @ 10 μM] both for the CB 1 and CB2 receptor assay, The lower % inhibition is, the lower the likelihood of side effects based on CB1 or CB2 receptor inhibition is.

[2] = molecular target: T2, human CB1 receptor (Homo sapiens, UniProt P21554); assay: CB1 receptor affinity, [3H]-CP-55,940 displacement, HEK cell membranes; type: binding; details: read-out: CB1 receptor affinity [% inhibition @ 10 μM]
T2 construct: expressed in transfected cells; host or cells: human embryonic kidney (HEK) cells, Semliki Forest Virus system, membrane preparations
Protocol: as §1, with “cannabinoid” for “cannabinoid CB2”, “CB1” for “CB2”, “[3H]-CP-55,940” for “[^3H]-CP-55,940”
as §2

[3] = 10 μM compound, radioligand [3H]-CP-55,940

T1 sequence (P34972 whole entry): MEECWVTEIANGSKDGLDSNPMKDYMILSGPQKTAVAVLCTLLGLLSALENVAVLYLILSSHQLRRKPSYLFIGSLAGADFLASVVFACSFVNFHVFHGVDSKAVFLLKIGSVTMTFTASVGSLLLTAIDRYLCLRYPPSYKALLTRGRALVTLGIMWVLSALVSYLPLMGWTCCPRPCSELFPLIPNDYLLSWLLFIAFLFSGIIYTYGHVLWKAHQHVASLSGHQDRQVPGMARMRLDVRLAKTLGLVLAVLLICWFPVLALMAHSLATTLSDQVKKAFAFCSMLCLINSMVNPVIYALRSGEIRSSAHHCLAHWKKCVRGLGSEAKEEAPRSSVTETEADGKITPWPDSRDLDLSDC
T2 sequence (P21554 whole entry): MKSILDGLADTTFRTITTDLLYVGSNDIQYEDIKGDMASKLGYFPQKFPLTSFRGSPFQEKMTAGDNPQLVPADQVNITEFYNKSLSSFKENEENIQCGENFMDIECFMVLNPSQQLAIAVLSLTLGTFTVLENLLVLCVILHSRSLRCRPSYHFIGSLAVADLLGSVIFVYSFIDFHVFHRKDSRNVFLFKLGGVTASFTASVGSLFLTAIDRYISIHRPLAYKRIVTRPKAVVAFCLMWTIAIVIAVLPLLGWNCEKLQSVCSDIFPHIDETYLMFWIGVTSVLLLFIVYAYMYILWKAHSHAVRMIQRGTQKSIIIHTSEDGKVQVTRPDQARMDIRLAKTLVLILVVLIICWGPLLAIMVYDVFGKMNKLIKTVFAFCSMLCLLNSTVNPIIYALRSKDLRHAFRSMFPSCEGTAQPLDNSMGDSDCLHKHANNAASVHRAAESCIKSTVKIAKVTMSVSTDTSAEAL

Row | SMILES | inhibition at 10 µM [1] [%] | inhibition at 10 µM [2, 3] [%] | inhibition at 10 µM [2] [%]
1 | C[C@H](Oc1ncc(C(=O)NCc2ccccn2)nc1-c1ccc(Cl)cc1)C(F)(F)F [Example 69, (S)-6-(4-chlorophenyl)-N-(pyridin-2-ylmethyl)-5-(1,1,1-trifluoropropan-2-yloxy)pyrazine-2-carboxamide] | 40 | 34 | –
2 | Cc1noc(CNC(=O)c2cnc(OCC(F)(F)F)c(-c3ccc(Cl)cc3)c2)n1 [Example 90, 5-(4-chlorophenyl)-N-((3-methyl-1,2,4-oxadiazol-5-yl)methyl)-6-(2,2,2-trifluoroethoxy)nicotinamide] | 14 | 50 | –
3 | O=C(NCc1nc(C(F)(F)F)no1)c1cnc(OCC2CC2)c(-c2ccc(F)c(F)c2)c1 [Example 95, 6-(cyclopropylmethoxy)-5-(3,4-difluorophenyl)-N-((3-(trifluoromethyl)-1,2,4-oxadiazol-5-yl)methyl)nicotinamide] | 21 | 39 | –
4 | O=C(NCc1nc(C(F)(F)F)no1)c1cnc(OC[C@@H]2CCOC2)c(-c2ccc(Cl)cc2)c1 (stereo in doubt) [Example 105, 5-(4-Chloro-phenyl)-6-[(RS)-1-(tetrahydro-furan-3-yl)methoxy]-N-(3-trifluoromethyl-[1,2,4]oxadiazol-5-ylmethyl)-nicotinamide] | 17 | 47 | –
5 | CC(C)(C)c1nc(CNC(=O)c2cc(-c3ccc(Cl)cc3)c(OCC3CC3)cn2)cs1 [Example 54, N-((2-tert-butylthiazol-4-yl)methyl)-4-(4-chlorophenyl)-5-(cyclopropylmethoxy)picolinamide] | 12 | 20 | –
6 | O=C(NCc1ccn(CC2CC2)n1)c1cnc(OCC(F)(F)F)c(-c2ccc(Cl)cc2)c1 [Example 88, 5-(4-chlorophenyl)-N-((1-(cyclopropylmethyl)-1H-pyrazol-3-yl)methyl)-6-(2,2,2-trifluoroethoxy)nicotinamide] | 11 | 48 | –
7 | COc1cc(CNC(=O)c2cc(-c3ccc(C)c(C)c3)c(OCC(F)(F)F)cn2)on1 [Example 75, 4-(3,4-dimethylphenyl)-N-((3-methoxyisoxazol-5-yl)methyl)-5-(2,2,2-trifluoroethoxy)picolinamide] | 34 | 19 | –
8 | O=C(NCc1cc(C2CC2)no1)c1cc(-c2ccc(Cl)cc2)c(OCC(F)(F)F)cn1 [Example 33, 4-(4-chlorophenyl)-N-((3-cyclopropylisoxazol-5-yl)methyl)-5-(2,2,2-trifluoroethoxy)picolinamide] | 26 | 33 | –
9 | O=C(NCc1nc(C(F)(F)F)no1)c1cnc(OC2CCC2)c(-c2ccc(Cl)c(F)c2)c1 [Example 93, 5-(4-chloro-3-fluorophenyl)-6-cyclobutoxy-N-((3-(trifluoromethyl)-1,2,4-oxadiazol-5-yl)methyl)nicotinamide] | 7 | 18 | –
10 | COCCOc1ncc(C(=O)NCc2nc(C(F)(F)F)no2)cc1-c1ccc(Cl)c(F)c1 [Example 97, 5-(4-chloro-3-fluorophenyl)-6-(2-methoxyethoxy)-N-((3-(trifluoromethyl)-1,2,4-oxadiazol-5-yl)methyl)nicotinamide] | 25 | – | 48
11 | COCCOc1ncc(C(=O)NCc2nc(C(F)(F)F)no2)cc1-c1ccc(Cl)c(C)c1 [Example 98, 5-(4-chloro-3-methylphenyl)-6-(2-methoxyethoxy)-N-((3-(trifluoromethyl)-1,2,4-oxadiazol-5-yl)methyl)nicotinamide] | 16 | 41 | –
12 | O=C(NCc1ccccn1)c1cnc(OC2CCC2)c(-c2ccc(Cl)cc2)c1 [Example 101, 5-(4-chlorophenyl)-6-cyclobutoxy-N-(pyridin-2-ylmethyl)nicotinamide] | 37 | 45 | –
